Reference: ChEMBL document CHEMBL4616715, “Discovery of Diphenylacetamides as CXCR7 Inhibitors with Novel β-Arrestin Antagonist Activity” (ACS Med Chem Lett, 2020)

Experiments:
[1] = molecular target: T1, Atypical chemokine receptor 3 (Homo sapiens, UniProt P25106); test: Displacement of [125I]-CXCL12 from human CXCR7 receptor expressed in CHOK1 cell membranes incubated for 2 hrs by radiolabeled ligand binding assay; design: species or system CHO-K1
[2] = molecular target: T1, Atypical chemokine receptor 3; test: Agonist activity at human CXCR7 receptor expressed in CHOK1 cell membranes assessed as increase in beta-arrestin recruitment incubated for 30 mins; format: cell-based, CHO-K1
[3] = molecular target: C-X-C chemokine receptor type 4 (Homo sapiens, UniProt P61073); test: Displacement of [125I]-CXCL12 from human CXCR4 receptor expressed in Jurkat cells incubated for 2 hrs by radiolabeled ligand binding assay; format: cell-based
Chain of C-X-C chemokine receptor type 4 (P61073 whole entry): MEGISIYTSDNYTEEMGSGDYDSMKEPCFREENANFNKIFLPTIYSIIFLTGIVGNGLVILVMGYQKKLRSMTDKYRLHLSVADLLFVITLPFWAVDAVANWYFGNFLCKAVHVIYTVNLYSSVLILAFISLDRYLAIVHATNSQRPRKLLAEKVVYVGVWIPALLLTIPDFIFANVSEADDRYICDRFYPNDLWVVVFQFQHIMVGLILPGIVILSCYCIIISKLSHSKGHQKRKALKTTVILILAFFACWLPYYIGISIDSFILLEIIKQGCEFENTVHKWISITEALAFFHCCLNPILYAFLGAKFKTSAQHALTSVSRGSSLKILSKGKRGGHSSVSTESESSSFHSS

T1 sequence (P25106 whole entry): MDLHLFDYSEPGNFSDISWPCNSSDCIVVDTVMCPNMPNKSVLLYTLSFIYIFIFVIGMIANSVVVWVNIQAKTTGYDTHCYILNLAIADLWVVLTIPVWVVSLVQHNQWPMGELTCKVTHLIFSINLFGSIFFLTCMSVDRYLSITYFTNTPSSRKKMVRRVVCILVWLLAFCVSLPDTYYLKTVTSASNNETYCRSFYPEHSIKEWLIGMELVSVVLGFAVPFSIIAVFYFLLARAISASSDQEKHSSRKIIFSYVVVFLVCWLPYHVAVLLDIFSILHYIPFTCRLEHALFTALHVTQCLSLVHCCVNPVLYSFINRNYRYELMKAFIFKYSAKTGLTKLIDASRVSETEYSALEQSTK

SMILES	Ki ([1]; read-out: Ki) [µM]	Ki ([1]; read-out: pKi (converted)) [µM]	EC50 [2] [µM]	IC50 [3] [µM]
NC(=O)C(c1ccccc1)(c1ccccc1)[C@@H]1CCN(CCOc2ccc(-c3nnco3)cc2)C1	4.09	4.17	> 10	–
NC(=O)C(c1ccccc1)(c1ccccc1)[C@@H]1CCN(CCOc2ccc(-c3nccs3)cc2)C1	–	–	–	> 15
Cc1noc(-c2ccc(OCCN3CC[C@@H](C(C(N)=O)(c4ccccc4)c4ccccc4)C3)cc2)n1	11.8	–	> 10	–
NC(=O)C(c1ccccc1)(c1ccccc1)[C@@H]1CCN(CCOc2ccc(C3=NCCO3)cc2)C1	6.54	–	> 10	–
